Patent publication US11530221B2, “Pyrimido[4,5-d]pyrimidin-2-one derivatives as protein kinase inhibitors” (KOREA INSTITUTE OF SCIENCE AND TECHNOLOGY, priority 2019, dated 2022)
Like-named read-outs stand apart in the source and are kept apart here. Square brackets hold non-standard residues; d marks the D form. Peptide text beside a SMILES is read from it. * marks the point of attachment. X1 = Cc1ccc(Nc2ncc3c(n2)N(C)C(=O)N(c2cc(C(=O)*)ccc2C)C3)cn1; Ac3c = NC1(C(=O)O)CC1; Aib = CC(C)(N)C(=O)O

What was measured:
[1] = target: LCK (Homo sapiens, UniProt P06239); assay: IC50 inhibitory activity against LCK kinase; assay type: biochemical
LCK, sequence (P06239 whole entry): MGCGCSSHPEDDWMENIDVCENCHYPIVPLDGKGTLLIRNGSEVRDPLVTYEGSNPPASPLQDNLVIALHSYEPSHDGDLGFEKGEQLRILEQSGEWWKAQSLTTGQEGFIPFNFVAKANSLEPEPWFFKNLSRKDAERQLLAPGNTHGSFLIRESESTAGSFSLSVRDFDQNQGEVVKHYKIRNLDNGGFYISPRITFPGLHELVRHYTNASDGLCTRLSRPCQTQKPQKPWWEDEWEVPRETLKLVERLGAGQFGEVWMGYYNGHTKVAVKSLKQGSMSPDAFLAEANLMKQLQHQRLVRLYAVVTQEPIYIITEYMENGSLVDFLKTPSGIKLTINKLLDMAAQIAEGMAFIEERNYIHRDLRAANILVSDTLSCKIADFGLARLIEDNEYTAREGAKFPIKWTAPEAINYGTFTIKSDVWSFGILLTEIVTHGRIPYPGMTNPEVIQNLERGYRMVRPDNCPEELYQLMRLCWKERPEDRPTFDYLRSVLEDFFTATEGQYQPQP
Experimental: (§1) IC50 values were calculated by measuring the inhibitory activity against LCK, c-Src, p38a/MAPK14, ABL1, DDR1 and FGR kinases of the compounds of the present invention.

[2] = target: c-Src (Homo sapiens, UniProt P12931); assay: IC50 inhibitory activity against c-Src kinase; assay type: biochemical
c-Src, sequence (P12931 whole entry): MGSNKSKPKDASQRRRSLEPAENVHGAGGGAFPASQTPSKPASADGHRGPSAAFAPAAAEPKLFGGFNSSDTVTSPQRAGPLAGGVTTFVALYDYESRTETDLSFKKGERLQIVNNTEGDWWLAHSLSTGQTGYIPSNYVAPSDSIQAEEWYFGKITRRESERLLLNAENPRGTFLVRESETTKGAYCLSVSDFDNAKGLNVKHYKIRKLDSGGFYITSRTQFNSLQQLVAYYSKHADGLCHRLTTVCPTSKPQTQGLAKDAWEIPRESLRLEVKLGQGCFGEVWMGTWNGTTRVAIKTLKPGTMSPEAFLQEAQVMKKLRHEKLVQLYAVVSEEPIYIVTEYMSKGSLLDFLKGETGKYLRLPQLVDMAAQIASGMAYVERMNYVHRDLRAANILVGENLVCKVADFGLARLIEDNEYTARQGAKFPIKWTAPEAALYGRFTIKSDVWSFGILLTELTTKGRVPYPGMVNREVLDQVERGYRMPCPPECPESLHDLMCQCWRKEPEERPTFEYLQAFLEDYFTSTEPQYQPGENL
Experimental: as §1

Row | Compound | IC50 ([1]; read-out: LCK IC50) | IC50 ([2]; read-out: c-Src IC50) | IC50 [1] | IC50 [2]
1 | Cc1ccc(Nc2ncc3c(n2)N(C)C(=O)N(c2cc(C(=O)N[C@@H](C)C(=O)N4CCC[C@H]4C(=O)NC(C)(C)C(=O)N[C@H](C(=O)N(C)C)C(C)C)ccc2C)C3)cn1 [Example 25, (S)—N-(1-(((S)-1-(dimethylamino)-3-methyl-1-oxobutan-2-yl)amino)-2-methyl-1-oxopropan-2-yl)-1-((4-methyl-3-(1-methyl-7-((6-methylpyridin-3-yl)amino)-2-oxo-1,4-dihydropyrimido[4,5-d]pyrimidin-3(2H)-yl)benzoyl)-L-alanyl)pyrrolidine-2-carboxamide] (X1-AP[Aib]V-NMe2) |  |  | 200 to 400 nM | > 600 nM
2 | Cc1ccc(Nc2ncc3c(n2)N(C)C(=O)N(c2cc(C(=O)N[C@H](C(=O)N4CCC[C@H]4C(=O)N[C@H](C(=O)N[C@H](C)c4ccccc4)C(C)C)C(C)C)ccc2C)C3)cn1 [Example 9, (S)—N—((S)-3-methyl-1-oxo-1-(((R)-1-phenylethyl)amino)butan-2-yl)-1-((4-methyl-3-(1-methyl-7-((6-methylpyridin-3-yl)amino)-2-oxo-1,4-dihydropyrimido[4,5-d]pyrimidin-3(2H)-yl)benzoyl)-L-valyl)pyrrolidine-2-carboxamide] | 1 to 200 nM | > 600 nM |  | 
3 | Cc1ccc(Nc2ncc3c(n2)N(C)C(=O)N(c2cc(C(=O)N[C@H](C(=O)N4CCC[C@H]4C(=O)NC4(C(=O)N[C@@H](CC(C)C)C(=O)N(C)C)CC4)C(C)C)ccc2C)C3)cn1 [Example 4, (S)—N-(1-(((S)-1-(dimethylamino)-4-methyl-1-oxopentan-2-yl)carbamoyl)cyclopropyl)-1-((4-methyl-3-(1-methyl-7-((6-methylpyridin-3-yl)amino)-2-oxo-1,4-dihydropyrimido[4,5-d]pyrimidin-3(2H)-yl)benzoyl)-L-valyl)pyrrolidine-2-carboxamide] (X1-VP[Ac3c]L-NMe2) |  |  | 1 to 200 nM | 200 to 400 nM
4 | Cc1ccc(Nc2ncc3c(n2)N(C)C(=O)N(c2cc(C(=O)N[C@H](C(=O)N4CCC[C@@H]4C(=O)NCC(=O)N[C@@H](CC(C)C)C(=O)N(C)C)C(C)C)ccc2C)C3)cn1 [Example 5, (R)—N-(2-(((S)-1-(dimethylamino)-4-methyl-1-oxopentan-2-yl)amino)-2-oxoethyl)-1-((4-methyl-3-(1-methyl-7-((6-methylpyridin-3-yl)amino)-2-oxo-1,4-dihydropyrimido[4,5-d]pyrimidin-3(2H)-yl)benzoyl)-L-valyl)pyrrolidine-2-carboxamide] (X1-V[dP]GL-NMe2) |  |  | 1 to 200 nM | > 600 nM
5 | Cc1ccc(Nc2ncc3c(n2)N(C)C(=O)N(c2cc(C(=O)N[C@H](C(=O)N4CCC[C@H]4C(=O)NC(C)(C)C(=O)NCC(=O)N(C)C)C(C)C)ccc2C)C3)cn1 [Example 14, (S)—N-(1-((2-(dimethylamino)-2-oxoethyl)amino)-2-methyl-1-oxopropan-2-yl)-1-((4-methyl-3-(1-methyl-7-((6-methylpyridin-3-yl)amino)-2-oxo-1,4-dihydropyrimido[4,5-d]pyrimidin-3(2H)-yl)benzoyl)-L-valyl)pyrrolidine-2-carboxamide] (X1-VP[Aib]G-NMe2) |  |  | 1 to 200 nM | > 600 nM

Now from value to compound, other results behind:

Row | IC50 ([1]; read-out: LCK IC50) | IC50 ([2]; read-out: c-Src IC50) | Compound | IC50 [1] | IC50 [2]
6 | 1 to 200 nM | 1 to 200 nM | C=CCCC1=N[C@@H](CC(=O)Nc2ccc(C)c(N3Cc4cnc(Nc5ccc(C)nc5)nc4N(C)C3=O)c2)C(=O)Nc2ccccc21 [Example 44, (S)-2-(5-(but-3-en-1-yl)-2-oxo-2,3-dihydro-1H-benzo[e][1,4]diazepin-3-yl)-N-(4-methyl-3-(1-methyl-7-((6-methylpyridin-3-yl)amino)-2-oxo-1,4-dihydropyrimido[4,5-d]pyrimidin-3(2H)-yl)phenyl)acetamide] |  | 
7 | 1 to 200 nM | 1 to 200 nM | C=CCCC1=N[C@@H](CC(=O)Nc2ccc(C)c(N3Cc4cnc(Nc5ccc(C)nc5)nc4N(C)C3=O)c2)C(=O)N(C)c2ccccc21 [Example 45, (S)-2-(5-(but-3-en-1-yl)-1-methyl-2-oxo-2,3-dihydro-1H-benzo[e][1,4]diazepin-3-yl)-N-(4-methyl-3-(1-methyl-7-((6-methylpyridin-3-yl)amino)-2-oxo-1,4-dihydropyrimido[4,5-d]pyrimidin-3(2H)-yl)phenyl)acetamide] |  | 
8 | 1 to 200 nM | 1 to 200 nM | Cc1ccc(Nc2ncc3c(n2)N(C)C(=O)N(c2cc(NC(=O)c4ccc5c(c4)NC(=O)[C@H](Cc4ccccc4C)N=C5c4ccccc4)ccc2C)C3)cn1 [Example 29, (S)—N-(4-methyl-3-(1-methyl-7-((6-methylpyridin-3-yl)amino)-2-oxo-1,4-dihydropyrimido[4,5-d]pyrimidin-3(2H)-yl)phenyl)-3-(2-methylbenzyl)-2-oxo-5-phenyl-2,3-dihydro-1H-benzo[e][1,4]diazepine-8-carboxamide] |  | 
9 | 1 to 200 nM | > 600 nM | Cc1ccc(Nc2ncc3c(n2)N(C)C(=O)N(c2cc(C(=O)N[C@@H](Cc4ccccc4)C(=O)N4CCC[C@H]4C(=O)NC(C)(C)C(=O)N[C@H](C(=O)N(C)C)C(C)C)ccc2C)C3)cn1 [Example 24, (S)—N-(1-(((S)-1-(dimethylamino)-3-methyl-1-oxobutan-2-yl)amino)-2-methyl-1-oxopropan-2-yl)-1-((4-methyl-3-(1-methyl-7-((6-methylpyridin-3-yl)amino)-2-oxo-1,4-dihydropyrimido[4,5-d]pyrimidin-3(2H)-yl)benzoyl)-L-phenylalanyl)pyrrolidine-2-carboxamide] (X1-FP[Aib]V-NMe2) |  | 
10 | 1 to 200 nM | 1 to 200 nM | C=CCCC1=N[C@@H](CC(=O)Nc2ccc(C)c(N3Cc4cnc(Nc5ccc(C)nc5)nc4N(C)C3=O)c2)C(=O)N(Cc2ccccc2)c2ccccc21 [Example 46, (S)-2-(1-benzyl-5-(but-3-en-1-yl)-2-oxo-2,3-dihydro-1H-benzo[e][1,4]diazepin-3-yl)-N-(4-methyl-3-(1-methyl-7-((6-methylpyridin-3-yl)amino)-2-oxo-1,4-dihydropyrimido[4,5-d]pyrimidin-3(2H)-yl)phenyl)acetamide] |  | 
11 | > 600 nM | > 600 nM | Cc1ccc(Nc2ncc3c(n2)N(C)C(=O)N(c2cc(C(=O)N[C@H](C(=O)N4CCC[C@H]4C(=O)NC(C)(C)C(=O)N[C@H](C(=O)N(C)C)C(C)C)C(C)C)ccc2C)C3)cn1 [Example 22, (S)—N-(1-(((S)-1-(dimethylamino)-3-methyl-1-oxobutan-2-yl)amino)-2-methyl-1-oxopropan-2-yl)-1-((4-methyl-3-(1-methyl-7-((6-methylpyridin-3-yl)amino)-2-oxo-1,4-dihydropyrimido[4,5-d]pyrimidin-3(2H)-yl)benzoyl)-L-valyl)pyrrolidine-2-carboxamide] (X1-VP[Aib]V-NMe2) |  | 
12 | 1 to 200 nM | 1 to 200 nM | COCCN1C(=O)[C@H](CC(C)C)N=C(c2ccccc2)c2ccc(C(=O)Nc3ccc(C)c(N4Cc5cnc(Nc6ccc(C)nc6)nc5N(C)C4=O)c3)cc21 [Example 42, (S)-3-isobutyl-1-(2-methoxyethyl)-N-(4-methyl-3-(1-methyl-7-((6-methylpyridin-3-yl)amino)-2-oxo-1,4-dihydropyrimido[4,5-d]pyrimidin-3(2H)-yl)phenyl)-2-oxo-5-phenyl-2,3-dihydro-1H-benzo[e][1,4]diazepine-8-carboxamide] |  | 
